Results as given in patent publication US20120157471A1, “BENZIMIDAZOLE DERIVATIVES” (PFIZER INC., priority 2009, published 2012).
pIC50: −log10 of the molar value.

Experiments:
[1] = biological target: T1, human Smo (amino acids 181-787) (Homo sapiens, UniProt Q99835); experiment: Smo radioligand competition binding assay (displacement of 3H-PF-03451358 from HEK293 membranes); conditions: for inhibition at 0.05 µM: 0.05 μM test compound, displacement of 3H-PF-03451358, read-out: SMO % inh. @ 0.05 μM; for pIC50: radioligand competition binding
T1 construct: expressed in transfected cells; membrane preparation
T1 sequence (Q99835 181-787): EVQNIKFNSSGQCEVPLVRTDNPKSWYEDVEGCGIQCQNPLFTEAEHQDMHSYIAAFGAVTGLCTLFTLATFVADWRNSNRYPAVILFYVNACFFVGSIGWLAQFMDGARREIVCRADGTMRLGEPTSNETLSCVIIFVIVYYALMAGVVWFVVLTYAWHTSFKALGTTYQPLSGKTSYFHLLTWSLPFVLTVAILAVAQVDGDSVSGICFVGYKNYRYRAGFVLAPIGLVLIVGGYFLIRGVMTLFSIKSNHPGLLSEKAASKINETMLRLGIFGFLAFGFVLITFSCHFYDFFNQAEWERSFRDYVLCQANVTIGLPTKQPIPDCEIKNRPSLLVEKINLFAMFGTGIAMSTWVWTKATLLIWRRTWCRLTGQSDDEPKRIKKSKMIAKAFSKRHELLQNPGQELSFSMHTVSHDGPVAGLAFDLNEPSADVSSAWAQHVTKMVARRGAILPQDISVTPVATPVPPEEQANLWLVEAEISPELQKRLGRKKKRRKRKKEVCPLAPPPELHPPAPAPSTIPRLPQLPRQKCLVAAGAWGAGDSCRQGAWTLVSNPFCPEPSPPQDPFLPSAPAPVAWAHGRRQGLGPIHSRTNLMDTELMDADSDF
Experimental: Membranes were prepared from a stable cell line created in HEK293FlpIn-TetR cells (Invitrogen) using FIp recombinase-mediated insertion of the pSecTag-FRT/V5-His vector containing a cDNA encoding amino acids 181-787 of human Smo fused to the murine lgk leader sequence to produce a cell surface expressed Smo 181-781 protein. Hygromycin-resistant clones were obtained and stained for LacZ expression (no expression indicates a correct knock-in of my fusion cDNA). LacZ-negative cells were analyzed for binding tritiated Smo antagonist PF-03451358. For membrane preparation, the HEK293 cells expressing Smo 181-781 were grown to 90% confluence in nine to fifteen 245 mm×245 mm×22 mm dishes, washed with Dulbecco's PBS (15 ml per dish) and harvested via scraping in 10 ml of DPBS. The cells were collected and centrifuged at 1500 rpm (400×g) for 10 min at 4° C. The cell pellets were re-suspended in 40 ml of cold DPBS and washed by centrifugation at 2300 rpm (950×g max) for 10 minutes at 4° C. The supernatant was aspirated and the cell pellet was snap frozen in a methanol/dry ice bath and stored at −70° C. For membrane preparation, 15 ml of Membrane Preparation Buffer (50 mM Tris-HCl pH 7.5, 250 mM sucrose with Roche complete protease cocktail tablets) is added to the tube containing the cell pellet, then cells are rapidly thawed, and homogenized using an Ultra-Turrax T8 (IKA Labortechnik) set on “6” for 15 seconds for 5-6 times in icy water bath. This homogenate was diluted up to 50 ml using Membrane Preparation Buffer and centrifuged at 35,000 rpm in a Beckman Ti45 rotor (140,000×g) for 35 minutes at 4° C. followed by aspiration of the supernatant and re-suspension of the pellet in 5 ml of Assay Buffer (50 mM Tris-HCl pH 7.5, 100 mM NaCl, 25 mM MgCl2, 1 mM EDTA, and 0.1% protease free bovine serum albumin). The re-suspended pellet is then homogenized in a glass tissue grinder. The re-suspended membranes are aliquoted (0.5 ml aliquots), snap frozen and stored at −70° C. Total protein in the membrane preparation is determined using the Pierce BCA protein assay (Pierce Chemical).
For the binding competition assay, 100 μl of Assay Buffer is added to all the wells of a 96 well GF/B filter plate (Millipore MultiScreen-HTS-FB cat# MSFBN6B50) for 10 minutes to pre-wet the filter prior to evacuation of the buffer (8 inches Hg for 8 seconds). To the pre-wet wells is added: 20 μl of Assay Buffer, 10 μl diluted test agent, 20 μl of ^3H-PF-3451358 (15 nM stock solution), and 50 μl of membrane preparation (40 μg total protein per well). The plates are sealed and mixed at room temperature for 5 min, incubated at room temperature for 2 hours, then washed 5 times with 100 μl/each of wash buffer and vacuum dried for 8 seconds at 8 inch Hg. The plate is then dried for one hour in a 60° C. oven prior to the addition of 45 μl of Microscint 20 (Packard, #6013621) to each well and incubation at RT for 30 minutes to 1 hour. The plate is counted in a TopCount scintillation counter (Perkin Elmer).
Data analysis uses Excel for % Inhibition and Graphpad Prism for IC50 calculation. Total binding (TB, in the absence of inhibitors)=average of ^3H PF-03451358 3 nM+SMO membrane (40 μg/wells (approx 5000-7000 CPM). Non-specific binding (NSB)=average of ^3H PF-03451358 (3 nM)+cold PF-03451358 (30 μM)+SMO membrane (approx 600-1200 CPM). Specific binding (SB)=(total binding−non-specific binding). % Inhibition=[1−(compound Specific binding/control Specific binding)]×100%. IC50 is calculated by fitting the data to the four parameter sigmoidal dose-response curve (variable slope) Y=Bottom+(Top-Bottom)/(1+10̂((LogEC50−X)*HillSlope)). X is the logarithm of the inhibitor concentration. Y is the response; Y starts at Bottom and goes to Top with a sigmoid shape.

[2] = test system: Gli-Luc/MEF cells (Smo); experiment: Gli-Luc/MEF assay (Shh-stimulated luciferase reporter under the Gli response element); format: cell-based, mouse; conditions: Mus musculus, MEF, 48 h
Experimental: The Gli-Luc/MEF cells obtained from Gli-Luc transgenic mice (Pfizer CoE, Genetically Modified Mice) contain a luciferase reporter gene under the control of the Gli response element. Luciferase activity stimulated with Sonic hedgehog ligand was inhibited by Smo inhibitors, and IC50 was subsequently calculated.
Plates were incubated at 37° C. and 5% CO2 overnight. On day two, cells were dosed with test compounds at a final concentration ranging from […] to 50 μM at a 3-time series dilution. Immediately after dosing cells with compounds, recombinant mouse sonic hedgehog (Shh, R&D Systems 464-SH) was added to a final concentration of 2 μg/mL. The cells were incubated with compounds and Shh for 48 hours at 37° C. and 5% CO2. Luciferase assays were conducted on Day 4 using the Bright-Glo Luciferase assay system (Promega E2620) according to Promega's protocol. Briefly, Bright-Glo luciferase reagent was made up and 25 uL were added to each well of the 384-well plate containing media. Plates were kept at room temperature for 5 minutes, and then read on an Envision Luminescence plate reader (Perkin-Elmer). IC50 of the inhibition was calculated by using GraphPad Prism.

Structure (SMILES) | inhibition at 0.05 µM [1] [%] | pIC50 [1] | pIC50 [2]
CC(=O)N1CCC(N(C)c2cc(-c3nc4ccccc4n3C)c(Cl)cn2)CC1 [Example A-58, N-(1-acetylpiperidin-4-yl)-5-chloro-N-methyl-4-(1-methyl-1H-benzimidazol-2-yl)pyridin-2-amine] | 97 | 7.82 | 7.51
Cc1cnc(N2CCN(S(C)(=O)=O)CC2)cc1-c1nc2ccccc2n1C [Example E-3, 1-methyl-2-{5-methyl-2-[4-(methylsulfonyl)piperazin-1-yl]pyridin-4-yl}-1H-benzimidazole] | 97 | 7.48 | 7.42
Cn1c(-c2cc(N3CCCN(C4=NCCC(=O)N4)CC3)ncc2Cl)nc2ccccc21 [Example A-130, 2-{4-[5-chloro-4-(1-methyl-1H-benzimidazol-2-yl)pyridin-2-yl]-1,4-diazepan-1-yl}-5,6-dihydropyrimidin-4(3H)-one] | 53 |  | 6.89
Cn1c(-c2cc(N3CCCn4cnc(CO)c4C3)ncc2Cl)nc2ccccc21 [Example A-110, {8-[5-chloro-4-(1-methyl-1H-benzimidazol-2-yl)pyridin-2-yl]-6,7,8,9-tetrahydro-5H-imidazo[1,5-a][1,4]diazepin-1-yl}methanol] | 74 | 6.79 | 7.03
COCCS(=O)(=O)NC1CN(c2cc(-c3nc4ccccc4n3C)c(Cl)cn2)C1 [Example A-195, N-{1-[5-chloro-4-(1-methyl-1H-benzimidazol-2-yl)pyridin-2-yl]azetidin-3-yl}-2-methoxyethanesulfonamide] | 101 | 8.02 | 8.31
Cn1c(-c2nc(N3CCC(NS(C)(=O)=O)CC3)ccc2Cl)nc2ccccc21 [Example B-12, N-{1-[5-chloro-6-(1-methyl-1H-benzimidazol-2-yl)pyridin-2-yl]piperidin-4-yl}methanesulfonamide] | 100 | 8.00 | 9.00
Cn1c(-c2ccnc(N3CCS(=O)(=O)CC3)c2)nc2ccccc21 [Example A-11, 2-[2-(1,1-dioxidothiomorpholin-4-yl)pyridin-4-yl]-1-methyl-1H-benzimidazole] | 52 | 6.31 | 6.56
CC(=O)NC1CCN(c2cc(-c3nc4ccccc4n3C)c(F)cn2)CC1 [Example D-14, N-{1-[5-fluoro-4-(1-methyl-1H-benzimidazol-2-yl)pyridin-2-yl]piperidin-4-yl}acetamide] | 97 | 7.72 | 7.76
COC(=O)NC1CN(c2cc(-c3nc4ccccc4n3C)c(Cl)cn2)C1 [Example A-44] | 89 | 7.23 | 7.66
Cn1cnnc1C1CCN(c2cc(-c3nc4ccccc4n3C)c(Cl)cn2)CC1 [Example A-132, 2-{5-chloro-2-[4-(4-methyl-4H-1,2,4-triazol-3-yl)piperidin-1-yl]pyridin-4-yl}-1-methyl-1H-benzimidazole] | 51 |  | 6.70
Cn1c(-c2cc(N3C[C@@H](CO)[C@@H](CCO)C3)ncc2Cl)nc2ccccc21 [Example A-111, 2-[(3R,4S)-1-[5-chloro-4-(1-methyl-1H-benzimidazol-2-yl)pyridin-2-yl]-4-(hydroxymethyl)pyrrolidin-3-yl]ethanol] | 73 | 6.94 | 7.60
Cn1c(-c2ccnc(N3CCCNCC3)c2)nc2ccccc21 [Example A-13, 2-[2-(1,4-diazepan-1-yl)pyridin-4-yl]-1-methyl-1H-benzimidazole] | 66 | 6.37 | 7.05
Cn1c(-c2cc(N3[C@@H]4CC[C@H]3C[C@@H](NS(C)(=O)=O)C4)ncc2Cl)nc2ccccc21 [Example A-193, N-{(3-endo)-8-[5-chloro-4-(1-methyl-1H-benzimidazol-2-yl)pyridin-2-yl]-8-azabicyclo[3.2.1]oct-3-yl}methanesulfonamide] | 103 | 7.89 | 8.60
CNC(=O)N1CCN(c2ncc(Cl)c(-c3nc4ccccc4n3C)n2)CC1 [Example C-7, 4-[5-Chloro-4-(1-methyl-1H-benzimidazol-2-yl)pyrimidin-2-yl]-N-methylpiperazine-1-carboxamide] | 95 | 7.85 | 7.74
Cn1c(-c2cc(N3CC(NS(C)(=O)=O)C3)ncc2Cl)nc2ccccc21 [Example A-41, N-{1-[5-chloro-4-(1-methyl-1H-benzimidazol-2-yl)pyridin-2-yl]azetidin-3-yl}methanesulfonamide] | 98 | 8.15 | 8.40
Cn1c(-c2cc(N3CCc4nnc(C5CC5)n4CC3)ncc2Cl)nc2ccccc21 [Example A-68, 7-[5-chloro-4-(1-methyl-1H-benzimidazol-2-yl)pyridin-2-yl]-3-cyclopropyl-6,7,8,9-tetrahydro-5H-[1,2,4]triazolo[4,3-d][1,4]diazepine] | 94 | 7.68 | 7.70
CC(=O)N1CCN(c2cc(-c3nc4ccccc4n3C)ccn2)CC1 [Example A-29, 2-[2-(4-acetylpiperazin-1-yl)pyridin-4-yl]-1-methyl-1H-benzimidazole] | 78 | 7.21 | 6.96
COC(=O)N(C)C1CN(c2cc(-c3nc4ccccc4n3C)c(Cl)cn2)C1 [Example A-150, methyl {1-[5-chloro-4-(1-methyl-1H-benzimidazol-2-yl)pyridin-2-yl]azetidin-3-yl}methylcarbamate] | 87 | 7.25 | 7.64
Cc1cnc(N2CCC(CS(C)(=O)=O)CC2)cc1-c1nc2ccccc2n1C [Example E-2, 1-methyl-2-(5-methyl-2-{4-[(methylsulfonyl)methyl]piperidin-1-yl}pyridin-4-yl)-1H-benzimidazole] | 99 | 7.74 | 7.68
Cn1c(-c2cc(N3CCC(C)(O)CC3)ncc2Cl)nc2ccccc21 [Example A-30, 1-[5-chloro-4-(1-methyl-1H-benzimidazol-2-yl)pyridin-2-yl]-4-methylpiperidin-4-ol] | 96 | 7.55 | 7.96
